The results in this text go back to patent US20220356174A1, “PYRIDIN-2-ONE COMPOUNDS USEFUL AS SMARCA2 ANTAGONISTS” (Epizyme, Inc., priority 2018, published 2022).

Some results are limits rather than exact numbers.

T1 sequence (P51531 with tags, fused parts or gaps): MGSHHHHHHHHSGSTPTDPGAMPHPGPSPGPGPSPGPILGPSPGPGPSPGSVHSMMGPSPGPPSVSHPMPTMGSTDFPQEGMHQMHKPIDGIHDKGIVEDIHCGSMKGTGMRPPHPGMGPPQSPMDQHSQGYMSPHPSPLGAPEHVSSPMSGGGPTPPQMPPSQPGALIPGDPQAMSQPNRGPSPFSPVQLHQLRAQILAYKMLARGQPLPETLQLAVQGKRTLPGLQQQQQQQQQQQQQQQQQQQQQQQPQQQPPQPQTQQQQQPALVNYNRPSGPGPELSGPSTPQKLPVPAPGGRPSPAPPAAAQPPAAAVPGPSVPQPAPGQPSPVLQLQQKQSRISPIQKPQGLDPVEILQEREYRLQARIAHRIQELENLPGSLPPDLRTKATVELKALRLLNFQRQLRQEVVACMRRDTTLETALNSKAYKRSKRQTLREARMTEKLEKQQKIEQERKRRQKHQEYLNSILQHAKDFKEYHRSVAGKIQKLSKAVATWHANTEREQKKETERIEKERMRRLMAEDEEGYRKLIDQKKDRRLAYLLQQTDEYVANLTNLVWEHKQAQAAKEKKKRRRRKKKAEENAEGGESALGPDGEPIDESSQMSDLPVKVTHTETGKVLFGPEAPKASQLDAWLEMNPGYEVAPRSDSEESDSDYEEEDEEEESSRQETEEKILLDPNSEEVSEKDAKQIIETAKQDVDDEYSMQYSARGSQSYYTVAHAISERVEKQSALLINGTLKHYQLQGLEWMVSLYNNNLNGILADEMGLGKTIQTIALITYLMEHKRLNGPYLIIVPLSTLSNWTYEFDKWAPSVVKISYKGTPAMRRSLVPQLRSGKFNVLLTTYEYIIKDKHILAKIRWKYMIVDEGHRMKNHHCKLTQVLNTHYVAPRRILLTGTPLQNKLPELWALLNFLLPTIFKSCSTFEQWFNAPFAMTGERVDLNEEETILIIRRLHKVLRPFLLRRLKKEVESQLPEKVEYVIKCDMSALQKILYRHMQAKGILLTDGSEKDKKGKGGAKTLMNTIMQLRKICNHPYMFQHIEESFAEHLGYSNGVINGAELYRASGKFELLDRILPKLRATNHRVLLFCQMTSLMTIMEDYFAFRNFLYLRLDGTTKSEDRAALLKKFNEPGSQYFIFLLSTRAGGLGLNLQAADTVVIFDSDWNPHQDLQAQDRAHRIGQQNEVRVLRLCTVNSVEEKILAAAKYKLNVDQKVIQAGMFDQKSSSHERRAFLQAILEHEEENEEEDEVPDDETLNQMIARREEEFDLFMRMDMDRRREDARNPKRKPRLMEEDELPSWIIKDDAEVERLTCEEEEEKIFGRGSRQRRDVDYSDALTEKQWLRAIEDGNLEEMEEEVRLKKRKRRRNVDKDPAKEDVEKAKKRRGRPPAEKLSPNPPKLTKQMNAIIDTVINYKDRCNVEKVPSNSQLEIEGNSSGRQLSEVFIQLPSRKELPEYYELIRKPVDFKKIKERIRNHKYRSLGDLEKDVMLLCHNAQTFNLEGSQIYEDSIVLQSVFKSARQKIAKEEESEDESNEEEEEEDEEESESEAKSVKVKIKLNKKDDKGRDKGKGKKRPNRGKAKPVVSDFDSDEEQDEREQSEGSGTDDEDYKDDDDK

One assay concerns the target T1, FL-SMARCA2 (full-length human SMARCA2 isoform 1) (Homo sapiens, UniProt P51531).
T1 construct: FLAG tag (YKDDDDK) (C); made in house; host or cells: Sf21 insect cells (baculovirus, pFastBacI)
Put plainly: SMARCA2 ATPase activity assay (ADP-Glo, chicken mononucleosome substrate). It counts as biochemical. The conditions noted are these: Table 3.1; ATPase assay, enzyme 5 nM, ATP 250 uM, chicken mononucleosome 10 nM, 30 min preincubation. An excerpt: Molecular Biology: Full-length human SMARCA2 isoform 1 (P51531) transcript clone was amplified from a cDNA library incorporating an N-terminal HIS tag ([…]) fused directly to Ser2 of SMARCA2 and a C-FLAG tag (YKDDDDK) fused directly to Glu1590 of SMARCA2. The amplified gene was subcloned into pFastBacI (Life Technologies).
Protein Expression: Recombinant baculovirus were generated and protein over-expression was accomplished by infecting exponentially growing Sf21 insect cell culture at 1.24×10^6 cell/ml with an MOI of 0.1. Infections were carried out for 76 hours, harvested by centrifugation, and stored at −80° C. for purification.
Expressed full-length SMARCA2 was purified from cell paste by FLAG affinity chromatography followed by anion exchange chromatography. The protein was dialyzed into a storage buffer containing 25 mM HEPES, 300 mM KCl, 10% Glycerol, pH 7.9, 1 mM TCEP and 0.01% Tween-20. The purity of the protein was measured as 74% using micro-capillary based gel electrophoresis.
A general note: ADP-Glo turns the ADP formed in a reaction into a luminescent signal.
Turning to `N#Cc1cc(C(=O)Nc2cc(Cl)c(=O)n(CC(F)(F)F)c2)sc1Cl` [Compound 208], the IC50 came to 0.123 µM.
In the case of `CCn1cc(NC(=O)c2cc(C#CCN)c(Cl)s2)ccc1=O` [Compound 292], the IC50 turned out to be 6.83 µM.
In the case of `CCn1cc(NC(=O)c2cc(Cl)c(Cl)[nH]2)ccc1=O` [Compound 17], the IC50 was found to be 4.06 µM.
`CCn1cc(NC(=O)c2cnc(Cl)s2)ccc1=O` [Compound 69] came in with an IC50 of 2.52 µM.
Consider `CC(F)Cn1cc(NC(=O)c2cc(Cl)c(C(F)(F)F)s2)cc(F)c1=O` (stereo not shown) [Compound 331], for which the IC50 stood at 0.172 µM.
As for `O=C(Nc1cc(F)c(=O)n(CCF)c1)c1ccc(-c2ccncc2)s1` [Compound 314], the IC50 was > 50 µM.
On to `CCn1cc(NC(=O)c2cc(-c3cn(C)cn3)c(Cl)s2)ccc1=O` [Compound 280], for which the IC50 is > 50 µM.
Regarding `CC(C)Nc1ncc(C(=O)Nc2cc(F)c(=O)n(CCF)c2)s1` [Compound 225], the IC50 was > 50 µM.
The molecule `N#Cc1cc(C(=O)Nc2cc(Cl)c(=O)n(CCF)c2)sc1Cl` [Compound 215] gave an IC50 of 0.071 µM.
`CCn1cc(NC(=O)c2cc(Cl)cs2)ccc1=O` [Compound 44]: the IC50 is > 50 µM.
`COCCn1cc(NC(=O)c2cc(Cl)c(Cl)s2)ccc1=O` [Compound 87]: the IC50 is > 50 µM.
Turning to `CCn1cc(NC(=O)c2cc(Cl)c(Cl)s2)cc(OCCN2CCN(C)CC2)c1=O` [Compound 119], the IC50 is > 50 µM.
Molecule `CCn1cc(NC(=O)c2cc(OC)c(Cl)s2)ccc1=O` [Compound 74] gave an IC50 of 17.2 µM.
As to `CCc1cc(NC(=O)c2cc(Cl)c(Cl)s2)cn(CC)c1=O` [Compound 117], the IC50 is > 50 µM.
`O=C(Nc1cc(Cl)c(=O)n(CC(F)(F)F)c1)c1cc(Cl)c(Cl)s1` [Compound 102] came in with an IC50 of 4.12 µM.
For the molecule `Cn1c(C(=O)Nc2cc(F)c(=O)n(CCF)c2)cnc1Cl` [Compound 205], the IC50 turned out to be 3.49 µM.
With `O=C(Nc1cc(F)c(=O)n(CCF)c1)c1cc(Cl)c(CC(F)(F)F)s1` [Compound 319], the IC50 worked out at 1.32 µM.
The molecule `N#Cc1[nH]c(C(=O)Nc2cc(Cl)c(=O)n(CCF)c2)cc1Cl` [Compound 241] gave an IC50 of 0.112 µM.
`O=C(Nc1cc(F)c(=O)n(CCF)c1)c1cnc(-n2ccnc2)s1` [Compound 271]: the IC50 was > 50 µM.
On to `Cn1c(C(=O)Nc2cc(Cl)c(=O)n(CC(F)(F)F)c2)cnc1Cl` [Compound 195], for which the IC50 was 7.59 µM.
As to `O=C(Nc1cc(F)c(=O)n(CCF)c1)c1cnc(Br)o1` [Compound 252], the IC50 was > 50 µM.
As for `O=C(Nc1ccc(=O)n(CC(F)(F)F)c1)c1cc(Cl)c(Cl)[nH]1` [Compound 166], the IC50 is 2.72 µM.

Still in this assay, the particulars now being: Table 3d.1; ATPase assay, enzyme 5 nM, ATP 250 uM, chicken mononucleosome 10 nM, 30 min preincubation; read-out: FL-SMARCA2 IC>50.
`CN(C)CC#Cc1cc(NC(=O)c2cc(F)c(Cl)s2)cn(CC(F)F)c1=O` [Compound 45d]: the IC50 was > 50 µM.
Consider `Cc1nc(-c2ccc(C(=O)Nc3cc(F)c(=O)n(CC(F)F)c3)s2)cs1` [Compound 33d], for which the IC50 is > 50 µM.
In the case of `CCn1cc(NC(=O)c2cc(Cl)c(Cl)s2)c(Cl)cc1=O` [Compound 24d], the IC50 was 18.4 µM.
Same read-out and setting: next, `NC(=O)c1cc(C(=O)Nc2cc(F)c(=O)n(CC(F)F)c2)sc1C(F)(F)F` [Compound 35d]: > 50 µM.

For another assay, the target named is FL-SMARCA4 (Homo sapiens, UniProt P51532). Put plainly: SMARCA4 ATPase activity assay (ADP-Glo, chicken mononucleosome substrate). Particulars: FL-SMARCA4 IC50.
Chain of FL-SMARCA4 (P51532 whole entry): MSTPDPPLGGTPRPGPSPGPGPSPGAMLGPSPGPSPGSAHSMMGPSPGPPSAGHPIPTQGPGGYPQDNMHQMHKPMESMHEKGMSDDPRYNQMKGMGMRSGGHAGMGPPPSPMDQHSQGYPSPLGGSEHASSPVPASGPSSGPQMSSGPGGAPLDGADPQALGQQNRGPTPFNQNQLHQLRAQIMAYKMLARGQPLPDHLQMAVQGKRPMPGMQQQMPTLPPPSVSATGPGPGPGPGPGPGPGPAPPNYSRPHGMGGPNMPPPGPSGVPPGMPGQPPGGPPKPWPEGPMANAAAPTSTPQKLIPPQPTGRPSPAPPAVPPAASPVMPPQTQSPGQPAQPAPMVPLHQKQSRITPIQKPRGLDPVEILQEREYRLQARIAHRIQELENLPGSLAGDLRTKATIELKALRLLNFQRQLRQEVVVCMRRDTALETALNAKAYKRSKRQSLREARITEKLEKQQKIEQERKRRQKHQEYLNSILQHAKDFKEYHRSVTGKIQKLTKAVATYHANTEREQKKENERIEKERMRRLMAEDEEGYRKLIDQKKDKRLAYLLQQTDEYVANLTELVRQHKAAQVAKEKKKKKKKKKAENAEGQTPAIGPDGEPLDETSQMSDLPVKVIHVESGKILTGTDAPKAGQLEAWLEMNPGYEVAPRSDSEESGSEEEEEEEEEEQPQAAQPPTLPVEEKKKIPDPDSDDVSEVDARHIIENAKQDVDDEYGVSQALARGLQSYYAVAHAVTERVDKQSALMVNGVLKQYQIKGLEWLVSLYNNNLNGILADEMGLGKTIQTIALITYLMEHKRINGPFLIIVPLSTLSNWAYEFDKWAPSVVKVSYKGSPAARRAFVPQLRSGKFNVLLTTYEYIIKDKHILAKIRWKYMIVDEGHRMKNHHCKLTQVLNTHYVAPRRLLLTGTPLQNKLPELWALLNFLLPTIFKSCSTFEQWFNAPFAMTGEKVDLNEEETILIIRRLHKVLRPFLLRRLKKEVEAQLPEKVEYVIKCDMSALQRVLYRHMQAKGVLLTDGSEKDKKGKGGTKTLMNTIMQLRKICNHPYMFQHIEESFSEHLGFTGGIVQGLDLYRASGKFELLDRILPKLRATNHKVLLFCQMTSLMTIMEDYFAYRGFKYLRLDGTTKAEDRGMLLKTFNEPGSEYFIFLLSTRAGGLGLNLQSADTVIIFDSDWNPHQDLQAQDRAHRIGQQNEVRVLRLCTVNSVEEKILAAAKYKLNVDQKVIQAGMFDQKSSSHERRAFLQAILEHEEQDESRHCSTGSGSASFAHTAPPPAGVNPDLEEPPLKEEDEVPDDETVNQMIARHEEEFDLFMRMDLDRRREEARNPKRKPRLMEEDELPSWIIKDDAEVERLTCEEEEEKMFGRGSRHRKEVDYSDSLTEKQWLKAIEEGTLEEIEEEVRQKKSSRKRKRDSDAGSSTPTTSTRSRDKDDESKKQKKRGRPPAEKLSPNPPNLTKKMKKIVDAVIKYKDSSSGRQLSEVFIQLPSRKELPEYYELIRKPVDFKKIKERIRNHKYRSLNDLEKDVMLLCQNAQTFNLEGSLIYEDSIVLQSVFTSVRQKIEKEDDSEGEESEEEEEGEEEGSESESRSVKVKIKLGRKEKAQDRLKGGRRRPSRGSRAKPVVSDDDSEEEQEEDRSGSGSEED
Consider `CN(C)CC#Cc1cc(NC(=O)c2cc(F)c(Cl)s2)cn(CC(F)F)c1=O` [Compound 45d], for which the IC50 was > 50 µM.
`Cc1nc(-c2ccc(C(=O)Nc3cc(F)c(=O)n(CC(F)F)c3)s2)cs1` [Compound 33d]: the IC50 is > 50 µM.
Take `CCn1cc(NC(=O)c2cc(Cl)c(Cl)s2)c(Cl)cc1=O` [Compound 24d]: the IC50 is > 50 µM.
In the case of `NC(=O)c1cc(C(=O)Nc2cc(F)c(=O)n(CC(F)F)c2)sc1C(F)(F)F` [Compound 35d], the IC50 is > 50 µM.

The assay is the same for the next values; noted with them: FL-SMARCA4 IC50, Table 3.2; ATPase assay, enzyme 5 nM, ATP 250 uM, chicken mononucleosome 10 nM, 30 min preincubation.
`N#Cc1cc(C(=O)Nc2cc(Cl)c(=O)n(CC(F)(F)F)c2)sc1Cl` [Compound 208]: the IC50 turned out to be 0.632 µM.
Still for that read-out and setting: with `CCn1cc(NC(=O)c2cc(C#CCN)c(Cl)s2)ccc1=O` [Compound 292] the figure was 8.48 µM; with `CCn1cc(NC(=O)c2cc(Cl)c(Cl)[nH]2)ccc1=O` [Compound 17], 26.6 µM.
The same measure, in the same setting: next, `CCn1cc(NC(=O)c2cnc(Cl)s2)ccc1=O` [Compound 69]: 11.7 µM.
On the same count and under the same terms, with `CC(F)Cn1cc(NC(=O)c2cc(Cl)c(C(F)(F)F)s2)cc(F)c1=O` (stereo not shown) [Compound 331] the figure was 0.924 µM.
On to `O=C(Nc1cc(F)c(=O)n(CCF)c1)c1ccc(-c2ccncc2)s1` [Compound 314], for which the IC50 was > 50 µM.
The same measure, in the same setting: next, `CCn1cc(NC(=O)c2cc(-c3cn(C)cn3)c(Cl)s2)ccc1=O` [Compound 280]: > 50 µM; `CC(C)Nc1ncc(C(=O)Nc2cc(F)c(=O)n(CCF)c2)s1` [Compound 225]: > 50 µM; `N#Cc1cc(C(=O)Nc2cc(Cl)c(=O)n(CCF)c2)sc1Cl` [Compound 215]: 0.492 µM.
For `CCn1cc(NC(=O)c2cc(Cl)cs2)ccc1=O` [Compound 44], the IC50 was > 50 µM.
As to `COCCn1cc(NC(=O)c2cc(Cl)c(Cl)s2)ccc1=O` [Compound 87], the IC50 is > 50 µM.
Still for that read-out and setting: next, `CCn1cc(NC(=O)c2cc(Cl)c(Cl)s2)cc(OCCN2CCN(C)CC2)c1=O` [Compound 119]: > 50 µM; `CCn1cc(NC(=O)c2cc(OC)c(Cl)s2)ccc1=O` [Compound 74]: 31.5 µM; `CCc1cc(NC(=O)c2cc(Cl)c(Cl)s2)cn(CC)c1=O` [Compound 117]: > 50 µM.
In the case of `O=C(Nc1cc(Cl)c(=O)n(CC(F)(F)F)c1)c1cc(Cl)c(Cl)s1` [Compound 102], the IC50 is 18.6 µM.
Consider `Cn1c(C(=O)Nc2cc(F)c(=O)n(CCF)c2)cnc1Cl` [Compound 205], for which the IC50 was 22.6 µM.
Turning to `O=C(Nc1cc(F)c(=O)n(CCF)c1)c1cc(Cl)c(CC(F)(F)F)s1` [Compound 319], the IC50 turned out to be 16.6 µM.
The molecule `N#Cc1[nH]c(C(=O)Nc2cc(Cl)c(=O)n(CCF)c2)cc1Cl` [Compound 241] gave an IC50 of 0.653 µM.
As for `O=C(Nc1cc(F)c(=O)n(CCF)c1)c1cnc(-n2ccnc2)s1` [Compound 271], the IC50 was > 50 µM.
`Cn1c(C(=O)Nc2cc(Cl)c(=O)n(CC(F)(F)F)c2)cnc1Cl` [Compound 195] registered an IC50 of 29.8 µM.
For `O=C(Nc1cc(F)c(=O)n(CCF)c1)c1cnc(Br)o1` [Compound 252], the IC50 was > 50 µM.
As to `O=C(Nc1ccc(=O)n(CC(F)(F)F)c1)c1cc(Cl)c(Cl)[nH]1` [Compound 166], the IC50 came out at 16.6 µM.
